# Experimental data published in patent US10961200B2, “Small molecule inhibitors of lactate dehydrogenase and methods of use thereof” (THE UNITED STATES OF AMERICA, AS REPRESENTED BY THE …, priority 2014, dated 2021).
# Biological target: Human LDHA (Homo sapiens (Human), UniProt P00338)
# Test: human LDHA primary biochemical assay (resazurin/diaphorase coupled, fluorescence)
# Settings: LDHA inhibitory activity, assay of Example 1; activity level classes
# Description: Test compounds were placed in a Greiner Bio-One (Monroe, N.C.) 1536-well black solid bottom assay plate. 200 millimolar (mM) Tris HCl, pH 7.4, 100 micromolar […] EDTA and 0.01% TWEEN-20™, final concentration, was used as the assay buffer. The LDHA reagent was 2 nanomolar (nM) Human LDHA (Meridian Life Science, Inc., Memphis, Tenn.), final concentration, in assay buffer.
row,SMILES,IC50 [nM]
1,"O=C(O)c1csc(-n2cc(-c3ccc(F)c(F)c3)c3cccnc32)n1 [Compound 23, 2-(3-(3,4-difluorophenyl)-1H-pyrrolo[2,3-b]pyridin-1-yl)thiazole-4-carboxylic acid]",> 57000
2,"O=C(O)c1csc(-n2nc(-c3ccc(F)c(F)c3)c3cccnc32)n1 [Compound 25, 2-(3-(3,4-difluorophenyl)-1H-pyrazolo[3,4-b]pyridin-1-yl)thiazole-4-carboxylic acid]",> 57000
3,"O=C(O)c1csc(-n2cc(-c3cccc(-c4ccccc4)c3)c3cccnc32)n1 [Compound 29, 2-(3-([1,1′-biphenyl]-3-yl)-1H-pyrrolo[2,3-b]pyridin-1-yl)thiazole-4-carboxylic acid]",> 57000

# The next lines start with the values.
row,IC50 [nM],SMILES
1,> 57000,"CS(=O)(=O)c1ccc(Cc2cn(-c3nc(C(=O)O)cs3)nc2-c2ccccc2)cc1 [Compound 27, 2-(4-(4-(methylsulfonyl)benzyl)-3-phenyl-1H-pyrazol-1-yl)thiazole-4-carboxylic acid]"
2,> 57000,"O=C(O)c1csc(-n2cc(Cc3ccc(C(F)(F)F)cc3)c(-c3ccccc3)n2)n1 [Compound 28, 2-(3-phenyl-4-(4-(trifluoromethyl)benzyl)-1H-pyrazol-1-yl)thiazole-4-carboxylic acid]"

# Same assay, conditions: read-out: Inhibitory activity IC50
row,SMILES,IC50 [nM]
1,"NS(=O)(=O)c1ccc(Cc2cn(-c3nc(C(=O)O)cs3)nc2-c2ccccc2)cc1 [Compound 19, 2-(3-phenyl-4-(4-sulfamoylbenzyl)-1H-pyrazol-1-yl)thiazole-4-carboxylic acid]",< 100
2,"O=C(O)c1csc(-n2ccc(-c3cccc(-c4ccccc4)c3)n2)n1 [Compound 22, 2-(3-([1,1′-biphenyl]-3-yl)-1H-pyrazol-1-yl)thiazole-4-carboxylic acid]",1000 to 57000
3,"NS(=O)(=O)c1ccc(Cc2cn(-c3nc(C(=O)O)cs3)c3ccc(C(=O)N4CCOCC4)cc23)cc1 [Compound 30, 2-(5-(morpholine-4-carbonyl)-3-(4-sulfamoylbenzyl)-1H-indol-1-yl)thiazole-4-carboxylic acid]",1000 to 57000
4,"NS(=O)(=O)c1ccc(Cc2cn(-c3nc(C(=O)O)cs3)c3ccc(F)cc23)cc1 [Compound 31, 2-(5-fluoro-3-(4-sulfamoylbenzyl)-1H-indol-1-yl)thiazole-4-carboxylic acid]",100 to 1000
5,"NS(=O)(=O)c1ccc(Cc2cn(-c3nc(C(=O)O)cs3)c3ccc(CN4CCOCC4)cc23)cc1 [Compound 32, 2-(5-(morpholinomethyl)-3-(4-sulfamoylbenzyl)-1H-indol-1-yl)thiazole-4-carboxylic acid]",1000 to 57000
6,"NS(=O)(=O)c1ccc(Oc2cn(-c3nc(C(=O)O)cs3)nc2-c2ccccc2)cc1 [Compound 33, 2-(3-phenyl-4-(4-sulfamoylphenoxy)-1H-pyrazol-1-yl)thiazole-4-carboxylic acid]",< 100

# Other lines, results leading:
row,IC50 [nM],SMILES
1,1000 to 57000,"O=C(O)c1csc(-n2cc(Br)c(-c3cccc(-c4ccccc4)c3)n2)n1 [Compound 21, 2-(3-([1,1′-biphenyl]-3-yl)-4-bromo-1H-pyrazol-1-yl)thiazole-4-carboxylic acid]"
2,100 to 1000,"NS(=O)(=O)c1ccc(Oc2c(-c3ccccc3)nn(-c3nc(C(=O)O)cs3)c2O)cc1 [Compound 24, 2-(5-hydroxy-3-phenyl-4-(4-sulfamoylphenoxy)-1H-pyrazol-1-yl)thiazole-4-carboxylic acid]"
3,100 to 1000,"NS(=O)(=O)c1ccc(Cc2cn(-c3nc(C(=O)O)cs3)c3ncccc23)cc1 [Compound 26, 2-(3-(4-sulfamoylbenzyl)-1H-pyrrolo[2,3-b]pyridin-1-yl)thiazole-4-carboxylic acid]"
4,100 to 1000,"NS(=O)(=O)c1ccc(Cc2cn(-c3nc(C(=O)O)cs3)c3ccncc23)cc1 [Compound 34, 2-(3-(4-sulfamoylbenzyl)-1H-pyrrolo[3,2-c]pyridin-1-yl)thiazole-4-carboxylic acid]"
5,1000 to 57000,"NS(=O)(=O)c1ccc(Cc2nn(-c3nc(C(=O)O)cs3)c3ccccc23)cc1 [Compound 35, 2-(3-(4-sulfamoylbenzyl)-1H-indazol-1-yl)thiazole-4-carboxylic acid]"
